# According to US6991794B1, “Progenitor cell preservation factors and methods for and products of their use” (ImClone Systems Incorporated, priority 1997, dated 2006):
# T1: Dl-FRIL (Lablab purpureus, UniProt Q9ZTA9)
# T1 sequence (Q9ZTA9 9-272): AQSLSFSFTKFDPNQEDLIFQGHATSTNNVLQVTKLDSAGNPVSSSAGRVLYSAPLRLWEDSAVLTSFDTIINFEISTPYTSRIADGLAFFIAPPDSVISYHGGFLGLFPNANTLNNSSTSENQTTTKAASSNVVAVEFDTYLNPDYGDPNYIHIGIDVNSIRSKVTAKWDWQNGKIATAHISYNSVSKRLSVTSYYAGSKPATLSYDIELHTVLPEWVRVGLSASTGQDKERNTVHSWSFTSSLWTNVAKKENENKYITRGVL
# T1 sequence (Q9ZTA9 125-272 limits assumed): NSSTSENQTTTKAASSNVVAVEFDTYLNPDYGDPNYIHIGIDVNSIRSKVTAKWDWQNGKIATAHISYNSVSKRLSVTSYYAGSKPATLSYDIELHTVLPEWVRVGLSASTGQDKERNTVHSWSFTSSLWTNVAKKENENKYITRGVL
# T2: murine extracellular domain of the Flt3 receptor fused to the transmembrane and intracellular domains of the human Fms (UniProt P07333+Q00342, A795S/A899S/C564L/C654D/C793H/C831G/D601N/D652H/D673E/D898N/DEL545-556/DEL576-597/DEL711-780/E609N/E612Q/E649S/E789R/E803A/E806A/E865D/F571P/F692T/F788L/F807S/G637D/G866C/H565Y/H671Q/H824N/I560L/I563L/I633L/I640L/I867V/I870V/INS558VACMSIMALLLL/INS573QVRWKII/INS599GNSYTFIDPTQLP/INS709AMLGPSLSPGQDPEGGVDYKNIHLEKKYVRRDSGFSSQGVDTYVEMRPVSTSSNDSFSEQDLD/K569Q/K650T/K800Q/K826H/K871Q/L602E/L684H/L690V/L783G/L815V/L840M/L863I/M626V/M665I/N627E/N784R/N900K/P896L/Q570K/Q641K/R572K/R624K/R708A/R848K/S619A/S634G/S639V/S653A/S685G/S706R/S809N/S841N/S844N/T636E/T667S/T787E/V561L/V616T/V638A/V785P/V811I/V822L/V828A/V846I/V889L/Y631F/Y689L/Y703F/Y796S)
# T2 construct: consisting of the murine extracellular domain of the Flt3 receptor fused to the transmembrane and intracellular domains of the human Fms; expressed in transfected cells; host or cells: NIH 3T3 (mFlt3/Fms 3T3 cell line, provided by Dr. Ihor Lemischka)
# T2 sequence (Q00342+P07333 with tags, fused parts or gaps Q00342:DEL545-556/Q00342:INS558VACMSIMALLLL/Q00342:I560L/Q00342:V561L/Q00342:I563L/Q00342:C564L/Q00342:H565Y/Q00342:K569Q/Q00342:Q570K/Q00342:F571P/Q00342:R572K/Q00342:INS573QVRWKII/Q00342:DEL576-597/Q00342:INS599GNSYTFIDPTQLP/Q00342:D601N/Q00342:L602E/Q00342:E609N/Q00342:E612Q/Q00342:V616T/Q00342:S619A/Q00342:R624K/Q00342:M626V/Q00342:N627E/Q00342:Y631F/Q00342:I633L/Q00342:S634G/Q00342:T636E/Q00342:G637D/Q00342:V638A/Q00342:S639V/Q00342:I640L/Q00342:Q641K/Q00342:E649S/Q00342:K650T/Q00342:D652H/Q00342:S653A/Q00342:C654D/Q00342:M665I/Q00342:T667S/Q00342:H671Q/Q00342:D673E/Q00342:L684H/Q00342:S685G/Q00342:Y689L/Q00342:L690V/Q00342:F692T/Q00342:Y703F/Q00342:S706R/Q00342:R708A/Q00342:INS709AMLGPSLSPGQDPEGGVDYKNIHLEKKYVRRDSGFSSQGVDTYVEMRPVSTSSNDSFSEQDLD/Q00342:DEL711-780/Q00342:L783G/Q00342:N784R/Q00342:V785P/Q00342:T787E/Q00342:F788L/Q00342:E789R/Q00342:C793H/Q00342:A795S/Q00342:Y796S/Q00342:K800Q/Q00342:E803A/Q00342:E806A/Q00342:F807S/Q00342:S809N/Q00342:V811I/Q00342:L815V/Q00342:V822L/Q00342:H824N/Q00342:K826H/Q00342:V828A/Q00342:C831G/Q00342:L840M/Q00342:S841N/Q00342:S844N/Q00342:V846I/Q00342:R848K/Q00342:L863I/Q00342:E865D/Q00342:G866C/Q00342:I867V/Q00342:I870V/Q00342:K871Q/Q00342:V889L/Q00342:P896L/Q00342:D898N/Q00342:A899S/Q00342:N900K): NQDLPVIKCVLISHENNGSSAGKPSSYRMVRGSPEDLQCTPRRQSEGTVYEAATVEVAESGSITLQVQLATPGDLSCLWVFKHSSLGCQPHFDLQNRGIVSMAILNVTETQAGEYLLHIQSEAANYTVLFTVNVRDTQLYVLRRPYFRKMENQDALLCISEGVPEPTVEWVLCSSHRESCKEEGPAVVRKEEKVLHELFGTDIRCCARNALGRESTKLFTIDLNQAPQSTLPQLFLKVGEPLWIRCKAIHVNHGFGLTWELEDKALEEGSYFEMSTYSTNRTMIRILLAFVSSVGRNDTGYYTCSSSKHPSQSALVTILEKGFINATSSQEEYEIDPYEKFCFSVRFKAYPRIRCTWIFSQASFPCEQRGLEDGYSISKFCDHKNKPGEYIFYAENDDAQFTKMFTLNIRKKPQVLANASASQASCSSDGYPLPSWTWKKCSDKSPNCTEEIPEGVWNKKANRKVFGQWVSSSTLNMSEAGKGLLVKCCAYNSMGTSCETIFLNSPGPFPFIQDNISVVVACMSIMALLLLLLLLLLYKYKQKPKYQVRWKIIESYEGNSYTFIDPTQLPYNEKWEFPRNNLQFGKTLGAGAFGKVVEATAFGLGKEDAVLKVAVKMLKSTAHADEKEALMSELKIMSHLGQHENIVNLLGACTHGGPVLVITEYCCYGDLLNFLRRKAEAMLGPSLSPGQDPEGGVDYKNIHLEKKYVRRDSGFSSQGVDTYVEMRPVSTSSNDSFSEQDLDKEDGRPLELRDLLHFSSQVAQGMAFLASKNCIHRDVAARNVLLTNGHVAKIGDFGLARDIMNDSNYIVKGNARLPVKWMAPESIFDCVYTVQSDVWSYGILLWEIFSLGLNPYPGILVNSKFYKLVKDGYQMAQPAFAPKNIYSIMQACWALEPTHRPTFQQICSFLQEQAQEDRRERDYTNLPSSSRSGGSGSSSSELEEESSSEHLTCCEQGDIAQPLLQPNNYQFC
# Legend:
# Dl-FRIL = target: T1, Dl-FRIL; conditions: Mo et al., Glycobiology 1999; cited from earlier work
# [1] = murine 5-FU chemoprotection model; conditions: 150 mg/kg intraperitoneally
# Experimental: Administration of a second dose of 5-FU (also at 150 mg/kg) 3-7 days after the initial dose killed those stem cells and progenitors recruited into S-phase in response to the first treatment of 5-FU (Lerner and Harrison, supra).
# Since FRIL and cytokines act on progenitors in the same concentration range (ng/ml), this pretreatment dose regimen was used to test whether Dl-FRIL can protect mice from 5-FU administered at 2 intervals in the first week: 5-FU (150 mg/kg) was injected at day 0 and then a second dose (also at 150 mg/kg) was injected either on day 3 (d0/3 dose interval) or day 5 (d0/5 dose interval).
# Weight-matched BALB/c mice (10 mice/group) were injected intravenously with either with 0.2 mL of Dl-FRIL (500 mg/mL) or 0.2 mL of HBSS daily for 4 days. Two hours after the final treatment of Dl-FRIL, mice were injected intraperitoneally with 5-FU (150 mg/kg). Groups of mice received a second dose of 5-FU (150 mg/kg) at either day 3 or day 5.
# [2] = single dose 150 mg/kg (Lerner and Harrison); cited from earlier work
# [3] = target: T3, full-length human Fms receptor (Homo sapiens, UniProt P07333); assay: Fms 3T3 biological screening assay (XTT); assay type: cell-based
# T3 construct: The human FMS 3T3 cell line is a 3T3 cell line transfected with the full-length human Fms receptor; expressed in transfected cells; host or cells: NIH 3T3 (FMS 3T3 cell line, provided by Dr. Charles Sherr)
# T3 sequence (P07333 20-972): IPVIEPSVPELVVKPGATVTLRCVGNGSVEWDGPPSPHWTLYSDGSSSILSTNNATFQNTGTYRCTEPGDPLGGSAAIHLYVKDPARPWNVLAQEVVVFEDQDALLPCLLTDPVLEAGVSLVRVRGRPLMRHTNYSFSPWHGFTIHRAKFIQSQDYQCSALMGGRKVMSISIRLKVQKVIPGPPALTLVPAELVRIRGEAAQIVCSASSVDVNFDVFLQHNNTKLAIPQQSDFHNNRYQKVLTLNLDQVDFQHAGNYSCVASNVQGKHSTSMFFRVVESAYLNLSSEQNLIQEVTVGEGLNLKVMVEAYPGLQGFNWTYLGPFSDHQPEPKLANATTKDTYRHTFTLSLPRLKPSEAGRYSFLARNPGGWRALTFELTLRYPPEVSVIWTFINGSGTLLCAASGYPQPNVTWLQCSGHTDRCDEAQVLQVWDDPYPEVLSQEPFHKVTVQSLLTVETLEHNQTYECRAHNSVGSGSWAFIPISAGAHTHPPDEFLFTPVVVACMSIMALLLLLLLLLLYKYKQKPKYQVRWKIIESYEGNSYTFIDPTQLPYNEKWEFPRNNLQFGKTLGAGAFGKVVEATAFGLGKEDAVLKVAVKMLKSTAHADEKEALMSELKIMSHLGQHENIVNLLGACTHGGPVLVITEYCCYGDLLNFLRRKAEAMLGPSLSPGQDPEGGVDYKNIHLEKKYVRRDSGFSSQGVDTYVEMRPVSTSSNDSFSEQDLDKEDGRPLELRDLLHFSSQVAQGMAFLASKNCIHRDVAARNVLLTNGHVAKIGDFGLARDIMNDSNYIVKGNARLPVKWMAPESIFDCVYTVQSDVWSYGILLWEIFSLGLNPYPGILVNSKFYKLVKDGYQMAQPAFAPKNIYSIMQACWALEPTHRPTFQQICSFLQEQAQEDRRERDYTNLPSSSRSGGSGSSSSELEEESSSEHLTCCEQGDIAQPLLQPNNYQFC
# Source text: A biological screening assay to search for novel stimulators of the Flt3 receptor was developed using NIH 3T3 cells transfected with expression vectors containing cDNA of murine and human Flt3 and the related Fms receptor. The mFlt3/Fms 3T3 cell line is a 3T3 cell line transfected with nucleic acid encoding a fusion protein consisting of the murine extracellular domain of the Flt3 receptor fused to the transmembrane and intracellular domains of the human Fms (provided by Dr. Ihor Lemischka, Princeton University, Princeton, N.J.). The Stk 3T3 cell line is a 3T3 cell line transfected with the full-length human Flt3 receptor (provided by Dr. Donald Small, Johns Hopkins University, Baltimore, Md.). […]
# To create factor-dependence for receptor-transfected 3T3 cells, growth conditions were compromised to permit only ligands to rescue cells from death. […] Viable cells were quantitated after 3-5 days by XTT (2,3-bis[Methoxy-4-nitro-5sulfophenyl]-2H-tetrazolium-5 carboxanilide inner salt) (Sigma, St. Louis, Mo.) (Roehm et al., supra). Relative activity (units/ml) and specific activity (units/mg) are defined as the reciprocal dilution at which half-maximal stimulation of cells was detected. […]
# untransfected 3T3 cells = assay: untransfected parent 3T3 control cells (XTT); assay type: cell-based; conditions: Example 5 serum-free conditions
# Experimental: Specifically, 3T3 cells cultured in tissue culture plates (Becton Dickinson Labware, Lincoln Park, N.J.) were removed from the plates by washing cells twice in Hank's buffered saline solution (HBSS; Gibco Laboratories, Grand Island, N.Y.). Non-enzymatic cell dissociation buffer (Gibco) was added for 15 minutes at room temperature. The resulting cells were washed in medium. FLT3 3T3 cells were cultured at a final concentration of 3,000 cells per well in a volume of 100 μL of serum-defined medium containing […] rhIL1-α, 10% AIMV (Gibco, Grand Island, N.Y.) and 90% Dulbecco's modification of Eagle's medium (DMEM; Gibco) in 96 well plates. […] Proliferation and cell survival was quantitated by addition of XTT (2, 3-bis[Methoxy-4-nitro-5sulfophenyl]-2H-tetrazolium-5 carboxanilide inner salt) (Diagnostic Chemicals Ltd, Charlottetown, Prince Edward Island, Canada), which is a […] cleaved by actively respiring cells (Roehm et al., J. Immunol. Methods 142: 257-265, 1991). Proliferation and cell survival was quantitated spectrophotometrically using a Vmax kinetic plate reader (Molecular Devices Corp., Mountain View, Calif.), and recorded as either relative activity (units/mL) or as specific activity (units/mg). One unit of biological activity was defined as the reciprocal dilution at which half-maximal stimulation of cells is detected. […]
# [4] = target: T2, murine extracellular domain of the Flt3 receptor fused to the transmembrane and intracellular domains of the human Fms; assay: mFlt3/Fms 3T3 biological screening assay (XTT); assay type: cell-based
# Source text: A biological screening assay to search for novel stimulators of the Flt3 receptor was developed using NIH 3T3 cells transfected with expression vectors containing cDNA of murine and human Flt3 and the related Fms receptor. The mFlt3/Fms 3T3 cell line is a 3T3 cell line transfected with nucleic acid encoding a fusion protein consisting of the murine extracellular domain of the Flt3 receptor fused to the transmembrane and intracellular domains of the human Fms (provided by Dr. Ihor Lemischka, Princeton University, Princeton, N.J.). The Stk 3T3 cell line is a 3T3 cell line transfected with the full-length human Flt3 receptor (provided by Dr. Donald Small, Johns Hopkins University, Baltimore, Md.). The human FMS 3T3 cell line is a 3T3 cell line transfected with the full-length human Fms receptor (provided by Dr. Charles Sherr, Saint Jude Children's Research Hospital, Memphis, Tenn. Parent 3T3 cells were purchased from American Type Culture Collection (“ATCC”; Manassas, Va.). Receptor-transfected cells contained Neo resistance genes and were maintained in medium containing 750 µg/ml of G418 (Life Technologies, Rockville, Md.).
# To create factor-dependence for receptor-transfected 3T3 cells, growth conditions were compromised to permit only ligands to rescue cells from death. To do this, 3T3 cell lines were assayed in 96 well plates (Becton Dickinson Labware, Lincoln Park, N.J.) containing 3,000 cells in 100 μL of serum-free medium consisting of 10% AIMV (Life Technologies) and 90% DMEM. In each experiment, samples were serially diluted two-fold across rows starting at a 1:10 dilution. Viable cells were quantitated after 3-5 days by XTT (2,3-bis[Methoxy-4-nitro-5sulfophenyl]-2H-tetrazolium-5 carboxanilide inner salt) (Sigma, St. Louis, Mo.) (Roehm et al., supra). Relative activity (units/ml) and specific activity (units/mg) are defined as the reciprocal dilution at which half-maximal stimulation of cells was detected.
molecule,measurement,setting,value
"OC[C@H]1O[C@H](O[C@H]2O[C@H](CO)[C@@H](O)[C@H](O)[C@H]2O)[C@H](O)[C@@H](O)[C@@H]1O [α,α-trehalose]",potency relative to mannose,Dl-FRIL,3.6 fold
"O=c1[nH]cc(F)c(=O)[nH]1 [5-FU, 5-fluorouracil]",deaths from a single dose,[1],No mice died
same,reduction of bone marrow cellularity,[2],> 90%
"M-CSF: Recombinant human M-CSF, ligand of the Fms receptor (protein) EEVSEYCSHMIGSGHLQSLQRLIDSQMETSCQITFEFVDQEQLKDPVCYLKKAFLLVQDIMEDTMRFRDNTPNAIAIVQLQELSLRLKSCFTKDYEEHDKACVRTFYETPLQLLEKVKNVFNETKNLLDKDWNIFSKNCNNSFAECSSQDVVTKPDCN",response of Fms 3T3 cells,[3],responded to M-CSF in a dose-responsive manner
same,response of parent untransfected 3T3 cells,untransfected 3T3 cells,Neither the mFlt3/Fms 3T3 cells nor the parent untransfected 3T3 cells responded
same,response of mFlt3/Fms 3T3 cells,[4],Neither the mFlt3/Fms 3T3 cells nor the parent untransfected 3T3 cells responded
